# Experimental data reported in patent publication US4062950A, “Amino sugar derivatives” (priority 1973, dated 1977).
# Where two headings read alike, the source gives them in different places.
# Key:
# saccharase = target: T1, saccharase (Rattus norvegicus, UniProt P23739); test: In vivo saccharase inhibition (sucrose overfeeding test) in the fasting rat; details: for ED50: read-out: Saccharase Inhibition (ED50 mg/kg)
# T1 construct: from tissue; host or cells: intestine of the living rat (endogenous enzyme)
# T1 sequence (P23739 1014-1841 limits assumed): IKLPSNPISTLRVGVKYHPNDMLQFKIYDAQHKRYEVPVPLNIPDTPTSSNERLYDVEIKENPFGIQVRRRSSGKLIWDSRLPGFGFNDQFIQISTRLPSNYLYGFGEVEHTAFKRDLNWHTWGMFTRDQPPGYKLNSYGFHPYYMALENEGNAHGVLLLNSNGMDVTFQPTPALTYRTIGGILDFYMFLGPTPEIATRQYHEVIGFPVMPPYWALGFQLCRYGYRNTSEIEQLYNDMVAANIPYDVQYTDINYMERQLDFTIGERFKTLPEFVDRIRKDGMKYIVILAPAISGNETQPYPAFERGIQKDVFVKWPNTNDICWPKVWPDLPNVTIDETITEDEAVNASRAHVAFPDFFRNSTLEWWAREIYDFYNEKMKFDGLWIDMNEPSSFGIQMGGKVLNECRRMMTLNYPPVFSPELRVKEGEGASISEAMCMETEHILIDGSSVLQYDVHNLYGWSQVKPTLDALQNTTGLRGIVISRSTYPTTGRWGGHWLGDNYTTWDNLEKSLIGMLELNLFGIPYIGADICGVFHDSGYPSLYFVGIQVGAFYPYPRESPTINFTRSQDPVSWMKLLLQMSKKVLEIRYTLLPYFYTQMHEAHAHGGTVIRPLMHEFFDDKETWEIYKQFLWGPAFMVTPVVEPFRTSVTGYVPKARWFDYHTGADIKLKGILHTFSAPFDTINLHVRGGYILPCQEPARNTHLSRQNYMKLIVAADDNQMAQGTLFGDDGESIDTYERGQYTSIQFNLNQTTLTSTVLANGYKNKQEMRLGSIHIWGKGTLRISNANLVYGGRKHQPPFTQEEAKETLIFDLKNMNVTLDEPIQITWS
# T1 sequence (P23739 2-1013 partner limits assumed): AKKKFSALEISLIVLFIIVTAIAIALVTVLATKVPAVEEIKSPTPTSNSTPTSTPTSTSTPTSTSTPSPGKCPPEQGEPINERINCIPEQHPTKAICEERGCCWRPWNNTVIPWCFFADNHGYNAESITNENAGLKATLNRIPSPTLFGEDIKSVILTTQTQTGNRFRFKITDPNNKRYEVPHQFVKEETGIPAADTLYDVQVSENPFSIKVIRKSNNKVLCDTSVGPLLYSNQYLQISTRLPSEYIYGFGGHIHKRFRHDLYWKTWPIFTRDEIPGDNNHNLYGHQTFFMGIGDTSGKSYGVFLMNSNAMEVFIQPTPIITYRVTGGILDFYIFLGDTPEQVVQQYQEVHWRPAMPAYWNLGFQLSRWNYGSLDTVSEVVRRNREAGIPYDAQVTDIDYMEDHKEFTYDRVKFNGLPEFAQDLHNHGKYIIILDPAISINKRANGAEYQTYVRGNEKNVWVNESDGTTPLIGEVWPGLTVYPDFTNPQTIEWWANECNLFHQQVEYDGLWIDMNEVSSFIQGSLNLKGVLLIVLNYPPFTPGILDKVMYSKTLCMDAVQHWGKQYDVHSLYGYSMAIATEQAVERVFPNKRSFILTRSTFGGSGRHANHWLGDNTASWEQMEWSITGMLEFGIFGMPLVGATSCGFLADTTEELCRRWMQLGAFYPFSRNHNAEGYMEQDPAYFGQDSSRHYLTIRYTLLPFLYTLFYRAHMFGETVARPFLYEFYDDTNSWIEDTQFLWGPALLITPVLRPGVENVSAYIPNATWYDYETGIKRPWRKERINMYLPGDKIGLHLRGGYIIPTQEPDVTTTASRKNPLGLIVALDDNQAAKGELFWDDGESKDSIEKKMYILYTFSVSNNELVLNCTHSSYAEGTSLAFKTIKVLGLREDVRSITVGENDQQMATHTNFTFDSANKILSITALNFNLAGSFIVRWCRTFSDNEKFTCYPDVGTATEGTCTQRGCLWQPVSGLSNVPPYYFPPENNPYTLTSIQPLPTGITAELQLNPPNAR
# Procedure: (§1) The produce an alimentary hyperglycemia and hyperinsulinaemia, groups of 6 fasting rats are given (a) 2.5 g of sucrose, (b) 2.5 g of maltose or (c) 1 g of boiled starch orally, in aqueous solution or suspension. Six other rats are given the same carbohydrates in the same amount and a glycoside hydrolase inhibitor in the amount indicated. In addition, six other rats are given an appropriate volume of saline. The blood glucose and the serum insulin are then measured at short intervals of time, in the blood from the retro-orbital venous plexus. Blood glucose determinations are carried out in the Auto-Analyser device (Technicon), according to Hoffmann: J. biol.
# Solubility = type: physicochemical
# starch digestion = test: In vivo starch digestion inhibition (starch feeding test) in the fasting rat; details: for ED50: ED50, starch, fasting rat, Table VI; for in vivo inhibition of starch digestion, in words: compared with expectation from in vitro amylase inhibition
# glucose absorption = test: Effect on glucose absorption in fasting rats; type: in vivo, rat
# Procedure: as §1, with “biol. Chem. 120, 51 (1937), or enzymatically by means of glucose oxidase and o-dianisidine hydrochloride and the serum insulin determinations are carried out according to the method of Hales and Randle: Biochem. J. 88, 137 (1963).” for “biol.”
# [1] = 2.5 g sucrose + 50 SIU oral, 15 Min.
# [2] = 2.5 g sucrose + 50 SIU oral, 30 Min.
# [3] = 2.5 g sucrose + 50 SIU oral, 45 Min.
# [4] = 2.5 g sucrose + 100 SIU oral, 15 Min.
# [5] = 2.5 g sucrose + 100 SIU oral, 30 Min.
# [6] = 2.5 g sucrose + 100 SIU oral, 45 Min.
# [7] = ED50, sucrose, fasting rat, Table IV, read-out: Saccharase Inhibition In Vitro (ED50 mg/kg)
# [8] = 1 g starch + 150 AIU oral, 5 Min.
# [9] = 1 g starch + 150 AIU oral, 10 Min.
# [10] = 1 g starch + 150 AIU oral, 15 Min.
# [11] = 1 g starch + 150 AIU oral, 20 Min.
# [12] = 1 g starch + 150 AIU oral, 30 Min.
# [13] = 1 g starch + 150 AIU oral, 45 Min.
# [14] = 1 g starch + 300 AIU oral, 5 Min.
# [15] = 1 g starch + 300 AIU oral, 10 Min.
# [16] = 1 g starch + 300 AIU oral, 15 Min.
# [17] = 1 g starch + 300 AIU oral, 20 Min.
# [18] = 1 g starch + 300 AIU oral, 30 Min.
# [19] = 1 g starch + 300 AIU oral, 45 Min.
# [20] = 2.5 g sucrose + 25 SIU oral, 15 Min.
# [21] = 2.5 g sucrose + 25 SIU oral, 30 Min.
# [22] = 2.5 g sucrose + 25 SIU oral, 45 Min.
smiles,measurement,setting,value
"C[C@H]1O[C@H](O[C@H]2[C@H](O)[C@@H](O)C(O)O[C@@H]2CO)[C@H](O)[C@@H](O)[C@@H]1N[C@H]1C=C(CO)[C@@H](O)[C@H](O)[C@H]1O (stereo partly drawn) [Formula IIB, O-{4,6-bisdesoxy-4-[1 S-(1,4,6/5)-4,5,6-trihydroxy-3-hydroxymethylcyclohex-2-en-1-ylamino]-α-D-glucopyranosyl}-(1→4)-D-glucopyranose]",Blood Glucose (Mean ± SD),saccharase; [1],105 ± 11 mg%
same,Blood Glucose (Mean ± SD),saccharase; [2],123 ± 5.2 mg%
same,Blood Glucose (Mean ± SD),saccharase; [3],128 ± 11 mg%
same,Blood Glucose (Mean ± SD),saccharase; [4],89 ± 6.5 mg%
same,Blood Glucose (Mean ± SD),saccharase; [5],111 ± 4.1 mg%
same,Blood Glucose (Mean ± SD),saccharase; [6],116 ± 3.9 mg%
same,Blood Glucose (Mean ± SD),"saccharase; 2.5 g sucrose + 200 SIU oral, 15 Min.",72 ± 4.6 mg%
same,Blood Glucose (Mean ± SD),"saccharase; 2.5 g sucrose + 200 SIU oral, 30 Min.",95 ± 9.1 mg%
same,Blood Glucose (Mean ± SD),"saccharase; 2.5 g sucrose + 200 SIU oral, 45 Min.",104 ± 9.6 mg%
same,ED50,saccharase; [7],3 mg/kg
same,solubility,"Solubility; water, dimethylformamide, dimethylsulfoxide, methanol and hot ethanol",good solubility
same,Blood Glucose (Mean ± SD),"starch digestion; 1 g starch + 75 AIU oral, 5 Min.",102 ± 2.9 mg%
same,Blood Glucose (Mean ± SD),"starch digestion; 1 g starch + 75 AIU oral, 10 Min.",130 ± 6.9 mg%
same,Blood Glucose (Mean ± SD),"starch digestion; 1 g starch + 75 AIU oral, 15 Min.",128 ± 5.4 mg%
same,Blood Glucose (Mean ± SD),"starch digestion; 1 g starch + 75 AIU oral, 20 Min.",143 ± 11 mg%
same,Blood Glucose (Mean ± SD),"starch digestion; 1 g starch + 75 AIU oral, 30 Min.",125 ± 11 mg%
same,Blood Glucose (Mean ± SD),"starch digestion; 1 g starch + 75 AIU oral, 45 Min.",132 ± 18 mg%
same,Blood Glucose (Mean ± SD),starch digestion; [8],98 ± 8.7 mg%
same,Blood Glucose (Mean ± SD),starch digestion; [9],116 ± 9.0 mg%
same,Blood Glucose (Mean ± SD),starch digestion; [10],128 ± 5.8 mg%
same,Blood Glucose (Mean ± SD),starch digestion; [11],127 ± 4.8 mg%
same,Blood Glucose (Mean ± SD),starch digestion; [12],115 ± 5.2 mg%
same,Blood Glucose (Mean ± SD),starch digestion; [13],137 ± 5.2 mg%
same,Blood Glucose (Mean ± SD),starch digestion; [14],87 ± 13 mg%
same,Blood Glucose (Mean ± SD),starch digestion; [15],106 ± 1.8 mg%
same,Blood Glucose (Mean ± SD),starch digestion; [16],110 ± 8.9 mg%
same,Blood Glucose (Mean ± SD),starch digestion; [17],111 ± 2.1 mg%
same,Blood Glucose (Mean ± SD),starch digestion; [18],108 ± 5.3 mg%
same,Blood Glucose (Mean ± SD),starch digestion; [19],121 ± 7.2 mg%
same,ED50,starch digestion,0.76 mg/kg
same,"in vivo inhibition of starch digestion, in words",starch digestion,much higher than would be expected
"C[C@H]1O[C@H](O[C@H]2[C@H](O)[C@@H](O)[C@@H](O[C@H]3[C@H](O)[C@@H](O)C(O)O[C@@H]3CO)O[C@@H]2CO)[C@H](O)[C@@H](O)[C@@H]1N[C@H]1C=C(CO)[C@@H](O[C@H]2O[C@H](CO)[C@@H](O)[C@H](O)[C@H]2O)[C@H](O)[C@H]1O (stereo partly drawn) [Formula V, O-{4,6-bisdesoxy-4-[1 S-(1,4,6/5)-4,5,6-trihydroxy-3-hydroxymethyl-4-O-α-D-glucopyranosyl-(1→4)-cyclohex-2-en-1-ylamino]-α-D-glycopyranosyl}-(1→4)-O-α-D-glucopyranosyl-(1→4)-D-glucopyranose]",Blood Glucose (Mean ± SD),saccharase; [20],88 ± 11.4 mg%
same,Blood Glucose (Mean ± SD),saccharase; [21],101 ± 12.0 mg%
same,Blood Glucose (Mean ± SD),saccharase; [22],104 ± 7.4 mg%
same,Blood Glucose (Mean ± SD),saccharase; [1],91 ± 9.4 mg%
same,Blood Glucose (Mean ± SD),saccharase; [2],106 ± 7.0 mg%
same,Blood Glucose (Mean ± SD),saccharase; [3],94 ± 9.0 mg%
same,Blood Glucose (Mean ± SD),saccharase; [4],81 ± 7.2 mg%
same,Blood Glucose (Mean ± SD),saccharase; [5],90 ± 8.0 mg%
same,Blood Glucose (Mean ± SD),saccharase; [6],97 ± 1.6 mg%
same,ED50,saccharase; [7],2.65 mg/kg
same,Blood Glucose (Mean ± SD),"starch digestion; 1 g starch + 750 AIU oral, 5 Min.",86 ± 8.5 mg%
same,Blood Glucose (Mean ± SD),"starch digestion; 1 g starch + 750 AIU oral, 10 Min.",107 ± 5.0 mg%
same,Blood Glucose (Mean ± SD),"starch digestion; 1 g starch + 750 AIU oral, 15 Min.",117 ± 8.7 mg%
same,Blood Glucose (Mean ± SD),"starch digestion; 1 g starch + 750 AIU oral, 20 Min.",121 ± 12 mg%
same,Blood Glucose (Mean ± SD),"starch digestion; 1 g starch + 750 AIU oral, 30 Min.",126 ± 11 mg%
same,Blood Glucose (Mean ± SD),"starch digestion; 1 g starch + 750 AIU oral, 45 Min.",114 ± 3.6 mg%
same,Blood Glucose (Mean ± SD),"starch digestion; 1 g starch + 1,500 AIU oral, 5 Min.",77 ± 14 mg%
same,Blood Glucose (Mean ± SD),"starch digestion; 1 g starch + 1,500 AIU oral, 10 Min.",92 ± 9.6 mg%
same,Blood Glucose (Mean ± SD),"starch digestion; 1 g starch + 1,500 AIU oral, 15 Min.",94 ± 9.5 mg%
same,Blood Glucose (Mean ± SD),"starch digestion; 1 g starch + 1,500 AIU oral, 20 Min.",113 ± 9.7 mg%
same,Blood Glucose (Mean ± SD),"starch digestion; 1 g starch + 1,500 AIU oral, 30 Min.",112 ± 8.8 mg%
same,Blood Glucose (Mean ± SD),"starch digestion; 1 g starch + 1,500 AIU oral, 45 Min.",111 ± 4.2 mg%
same,Blood Glucose (Mean ± SD),"starch digestion; 1 g starch + 3,000 AIU oral, 5 Min.",65 ± 5.6 mg%
same,Blood Glucose (Mean ± SD),"starch digestion; 1 g starch + 3,000 AIU oral, 10 Min.",101 ± 3.3 mg%
same,Blood Glucose (Mean ± SD),"starch digestion; 1 g starch + 3,000 AIU oral, 15 Min.",82 ± 11 mg%
same,Blood Glucose (Mean ± SD),"starch digestion; 1 g starch + 3,000 AIU oral, 20 Min.",112 ± 4.5 mg%
same,Blood Glucose (Mean ± SD),"starch digestion; 1 g starch + 3,000 AIU oral, 30 Min.",109 ± 6.4 mg%
same,Blood Glucose (Mean ± SD),"starch digestion; 1 g starch + 3,000 AIU oral, 45 Min.",104 ± 2.5 mg%
same,ED50,starch digestion,1.61 mg/kg
same,"in vivo inhibition of starch digestion, in words",starch digestion,much higher than would be expected
"C[C@H]1O[C@H](O[C@H]2[C@H](O)[C@@H](O)[C@@H](O[C@H]3[C@H](O)[C@@H](O)C(O)O[C@@H]3CO)O[C@@H]2CO)[C@H](O)[C@@H](O)[C@@H]1N[C@H]1C=C(CO)[C@@H](O)[C@H](O)[C@H]1O (stereo partly drawn) [Formula IIIB, O-{4,6-bisdesoxy-4-[1 S-(1,4,6/5)-4,5,6-trihydroxy-3-hydroxymethylcyclohex-2-en-1-ylamino]-α-D-glucopyranosyl}-(1→4)-O-α-D-glucopyranosyl-(1→4)-D-glucopyranose]",Blood Glucose (Mean ± SD),saccharase; [20],71 ± 3.7 mg%
same,Blood Glucose (Mean ± SD),saccharase; [21],100 ± 7.3 mg%
same,Blood Glucose (Mean ± SD),saccharase; [22],107 ± 2.4 mg%
same,Blood Glucose (Mean ± SD),saccharase; [4],58 ± 5.9 mg%
same,Blood Glucose (Mean ± SD),saccharase; [5],92 ± 4.0 mg%
same,Blood Glucose (Mean ± SD),saccharase; [6],98 ± 5.0 mg%
same,ED50,saccharase; rat,0.21 mg/kg
same,water solubility,Solubility,readily water-soluble
same,Blood Glucose (Mean ± SD),starch digestion; [8],82 ± 7.5 mg%
same,Blood Glucose (Mean ± SD),starch digestion; [9],105 ± 4.2 mg%
same,Blood Glucose (Mean ± SD),starch digestion; [10],120 ± 6.0 mg%
same,Blood Glucose (Mean ± SD),starch digestion; [11],124 ± 7.0 mg%
same,Blood Glucose (Mean ± SD),starch digestion; [12],134 ± 6.1 mg%
same,Blood Glucose (Mean ± SD),starch digestion; [13],125 ± 5.2 mg%
same,Blood Glucose (Mean ± SD),starch digestion; [14],79 ± 8.2 mg%
same,Blood Glucose (Mean ± SD),starch digestion; [15],97 ± 2.7 mg%
same,Blood Glucose (Mean ± SD),starch digestion; [16],105 ± 10 mg%
same,Blood Glucose (Mean ± SD),starch digestion; [17],118 ± 6.7 mg%
same,Blood Glucose (Mean ± SD),starch digestion; [18],119 ± 9.9 mg%
same,Blood Glucose (Mean ± SD),starch digestion; [19],130 ± 5.9 mg%
same,Blood Glucose (Mean ± SD),"starch digestion; 1 g starch + 600 AIU oral, 5 Min.",70 ± 4.6 mg%
same,Blood Glucose (Mean ± SD),"starch digestion; 1 g starch + 600 AIU oral, 10 Min.",80 ± 8.8 mg%
same,Blood Glucose (Mean ± SD),"starch digestion; 1 g starch + 600 AIU oral, 15 Min.",94 ± 6.9 mg%
same,Blood Glucose (Mean ± SD),"starch digestion; 1 g starch + 600 AIU oral, 20 Min.",91 ± 16 mg%
same,Blood Glucose (Mean ± SD),"starch digestion; 1 g starch + 600 AIU oral, 30 Min.",103 ± 9.2 mg%
same,Blood Glucose (Mean ± SD),"starch digestion; 1 g starch + 600 AIU oral, 45 Min.",102 ± 4.2 mg%
same,Blood Glucose (Mean ± SD),"starch digestion; 1 g starch + 1,200 AIU oral, 5 Min.",70 ± 7.0 mg%
same,Blood Glucose (Mean ± SD),"starch digestion; 1 g starch + 1,200 AIU oral, 10 Min.",84 ± 7.7 mg%
same,Blood Glucose (Mean ± SD),"starch digestion; 1 g starch + 1,200 AIU oral, 15 Min.",88 ± 7.4 mg%
same,Blood Glucose (Mean ± SD),"starch digestion; 1 g starch + 1,200 AIU oral, 20 Min.",97 ± 5.2 mg%
same,Blood Glucose (Mean ± SD),"starch digestion; 1 g starch + 1,200 AIU oral, 30 Min.",97 mg%
same,Blood Glucose (Mean ± SD),"starch digestion; 1 g starch + 1,200 AIU oral, 45 Min.",100 ± 4.3 mg%
same,ED50,starch digestion,1.6 mg/kg
same,"in vivo inhibition of starch digestion, in words",starch digestion,much higher than would be expected
same,Blood Glucose (Mean ± SD),"glucose absorption; glucose + 30 mg, 15 Min.",135 ± 13 mg%
same,Blood Glucose (Mean ± SD),"glucose absorption; glucose + 30 mg, 30 Min.",128 ± 5.5 mg%
same,Blood Glucose (Mean ± SD),"glucose absorption; glucose + 30 mg, 45 Min.",132 ± 7.3 mg%
same,Blood Glucose (Mean ± SD),"glucose absorption; glucose + 60 mg, 15 Min.",125 ± 13 mg%
same,Blood Glucose (Mean ± SD),"glucose absorption; glucose + 60 mg, 30 Min.",118 ± 2.9 mg%
same,Blood Glucose (Mean ± SD),"glucose absorption; glucose + 60 mg, 45 Min.",130 ± 9.0 mg%
